Experiments:
mesothelial Met-5A cells = experiment: Scratch test (migration) on Met-5A cells after rTGF-β1; format: cell-based, human; settings: cells treated with rTGF-β1
Method: (§1) HSP27 siRNA were purchased from applied bios system (Courtaboeuf, France). The sense and antisense sequence were respectively: 5′-GUUCAAAGCAACCACCUGUtt-3 (SEQ ID No: 4)′ and 5′-ACAGGUGGUUGCUUUGAACtt-3′. (SEQ ID No: 5). They were used at a concentration of 50 nM. SiRNA were transfected using INTERFERin (polyplus, Illkirch, France) following the manufacturer recommendations. 5-6 hours after transfection medium were changed and cells were treated or not with 10 ng/ml TGF-β1 for 12, 24 or 48 hours. Seq ID No. 3 was used as a random control oligonucleotide.
Therefore, HSP27 inhibition blocked this all well known features of EMT induced by TGF-β1 in cultured cells. This corresponded to HSP27 expression levels (FIG. 3G).

epithelial A549 cells = experiment: rTGF-β1-induced EMT in A549 cells; format: cell-based, human; settings: siRNA 50 nM, rTGF-β1 10 ng/ml
Method: (§2) Mesothelial rat established cell line 4/4 RM4 cells (American Type Culture Collection—ATCC—Rockville, Md.) were seeded in Ham's F10 (Lonza), with FBS 15%. Mesothelial human established cell line MET-5A (ATCC) were seeded in Medium 199 (lonza), 1% L-glutamine, 1% penicillin-streptomycin with 10% FBS. Epithelial human cell line A549 cells (ATCC) and were seeded in Ham's F10 (lonza) with 10% FBS.
(§3) For EMT induction and analysis, all the different cells were exposed to their respective medium containing 10 ng/ml recombinant (r)TGF-β1 (R&D system, Lille, France) for 6, 12, 24, or 48 hours.
as §1, with “Seq ID No. 3 was used as a random control oligonucleotide.” left out
(§4) Total RNA was extracted using TRIzol (Invitrogen, Cergy Pontoise, France) from MET-5A and A549 cells treated or not with rTGF-β1 12 or 24 hours and transfected or not by HSP27 siRNA or plasmid encoding HSP27. […] Quantitative RT-PCR was performed on the cDNA using the SYBR green master mix (promega, Charbonnieres, France). […]

[1] = test system: human mesothelial Met-5A cells; experiment: rTGF-β1-induced EMT in Met-5A cells (western blot, RT-PCR); format: cell-based; settings: siRNA 50 nM, rTGF-β1 10 ng/ml
Method: as §2, §3, §1
Protein extraction was made using triton X 100 during 30 min at 4° C., vortexing every 10 min. Protein dosage is made with the modified lowry kit (Biorad, Marne-la-Coquette, France). Equal amounts of protein (30-50 μg) were electrophoresed through 8 to 12% SDS polyacrylamide gels. The separate protein bands were transferred onto a PVDF membrane. The non-specific sites were saturated with a solution of PBS-tween 0.1%, nonfat milk 8%. Membranes were incubated with primary Abs over night at 4° C. Secondary Abs IgG linked to HRP (HorseRadish Peroxidase, Jackson ImmunoResearch Laboratories, PA, USA) were used at a concentration of 1/5000. Enhanced ChemiLuminescent substrat (ECL, santa cruz biotechnology, CA, USA) was used to detect the protein of interest. […]
as §4

Substance: HSP27 siRNA: siRNA, sense 5′-GUUCAAAGCAACCACCUGUtt-3′ (SEQ ID No: 4), antisense 5′-ACAGGUGGUUGCUUUGAACtt-3′ (SEQ ID No: 5) (sense GUUCAAAGCAACCACCUGUTT; antisense ACAGGUGGUUGCUUUGAACTT; chemistry not given here; listed as Homo sapiens)
- migration capacity in scratch test (mesothelial Met-5A cells): much weaker migration
- wound recovery by 48 h (mesothelial Met-5A cells; 48 h): still largely unrecovered
- rTGF-β1 induced α-SMA (epithelial A549 cells): inhibits
- rTGF-β1 induced α-SMA ([1]; Met-5A cells): inhibits
- rTGF-β1-induced E-cadherin down-regulation ([1]; 48 h): blocks
- rTGF-β1-induced α-SMA upregulation ([1]; 48 h): blocks
